assay: log P by HPLC on a reversed-phase column (C18), EEC Directive 79/831 Annex V.A8; format: physicochemical; details: HCOOH
Experimental: The stated log P values were determined in accordance with EEC Directive 79/831 Annex V.A8 by HPLC (High Performance Liquid Chromatography) using a reversed-phase column (C18).

Row | SMILES | log P (HCOOH)
1 | Cc1cc(-n2nc(C(F)(F)F)c(-c3cccc(F)c3)c2N)ccc1C(=O)NCc1ccccn1 [I-A-Q2-354] | I-A-Q2-354: log P (HCOOH): 2.31
2 | CC(NC(=O)c1ccc(-n2nc(C(F)(F)F)c(-c3ccc(Br)cc3)c2N)cc1)C(F)(F)F (stereo not drawn) [I-A-Q2-188] | I-A-Q2-188: log P (HCOOH): 3.78
3 | Nc1c(-c2cc(Cl)cc(Cl)c2)c(C(F)(F)F)nn1-c1ccc(C(=O)NC2CCC2)cc1 [I-A-Q2-141] | I-A-Q2-141: log P (HCOOH): 4.21
4 | COc1ccc(-c2c(C)nn(-c3ccc(C(=O)NCC(F)(F)C(F)F)c(C)c3)c2N)cc1 [I-A-Q2-324] | I-A-Q2-324: log P (HCOOH): 2.30
5 | Cc1cc(-n2nc(C(F)(F)F)c(-c3cc(Cl)cc(Cl)c3)c2N)ccc1C(=O)NC(c1ccc(Oc2ccccc2)cc1)C(F)(F)F (stereo not drawn) [I-A-Q2-045] | I-A-Q2-045: log P (HCOOH): 5.85
6 | CCNC(=O)c1ccc(-n2nc(C(F)(F)F)c(-c3cc(Cl)cc(Cl)c3)c2N)cc1 [I-A-Q2-142] | I-A-Q2-142: log P (HCOOH): 3.77
7 | Cc1cc(-n2nc(C)c(-c3ccc(F)cc3Cl)c2N)ccc1C(=O)NCC(F)(F)C(F)F [I-A-Q2-327] | I-A-Q2-327: log P (HCOOH): 2.73
8 | CC(C)(CC(F)(F)F)NC(=O)c1ccc(-n2nc(C(F)(F)F)c(-c3cc(Cl)cc(Cl)c3)c2N)nc1 [I-A-Q2-099] | I-A-Q2-099: log P (HCOOH): 5.42
9 | CC(NC(=O)c1ccc(-n2nc(C(F)(F)F)c(-c3ccc(Cl)c(Cl)c3)c2N)cc1)C(F)(F)F (stereo not drawn) [I-A-Q2-155] | I-A-Q2-155: log P (HCOOH): 4.11
10 | Cc1nc(CNC(=O)c2ccc(-n3nc(C(F)(F)F)c(-c4cc(Cl)cc(Cl)c4)c3N)cc2C)no1 [I-A-Q2-059] | I-A-Q2-059: log P (HCOOH): 3.63
11 | Cc1cc(-n2nc(C(F)(F)F)c(-c3cc(F)cc(Cl)c3)c2N)ccc1C(=O)NCC(F)(F)C(F)F [I-A-Q2-301] | I-A-Q2-301: log P (HCOOH): 3.75
12 | Cc1cc(-n2nc(C(F)(F)F)c(-c3cccc(Br)c3)c2N)ccc1C(=O)NCc1ccccn1 [I-A-Q2-357] | I-A-Q2-357: log P (HCOOH): 2.72
13 | Cc1cc(-n2nc(C)c(-c3cccc(Cl)c3)c2N)ccc1C(=O)NCc1ccccn1 [I-A-Q2-371] | I-A-Q2-371: log P (HCOOH): 1.88
14 | CCC(CC)NC(=O)c1ccc(-n2nc(C(F)(F)F)c(-c3cc(Cl)cc(Cl)c3)c2N)cc1C [I-A-Q2-225] | I-A-Q2-225: log P (HCOOH): 4.57
15 | CC(NC(=O)c1ccc(-n2nc(C(F)(F)F)c(-c3cccc(Cl)c3)c2N)cc1)c1ccccc1 (stereo not drawn) [I-A-Q2-089] | I-A-Q2-089: log P (HCOOH): 3.89
16 | Cc1cc(-n2nc(C(F)(F)F)c(-c3cc(Cl)cc(Cl)c3)c2N)ccc1C(=O)NCc1ccncn1 [I-A-Q2-260] | I-A-Q2-260: log P (HCOOH): 3.33
17 | Cc1cc(-n2nc(C(F)(F)C(F)(F)F)c(-c3cc(C(F)(F)F)cc(C(F)(F)F)c3)c2N)ccc1C(=O)NCC(F)(F)C(F)F [I-A-Q2-343] | I-A-Q2-343: log P (HCOOH): 4.57
18 | CSc1c(-c2cc(Cl)cc(Cl)c2)c(C(F)(F)F)nn1-c1ccc(C(=O)NCc2ncccn2)c(C)c1 [I-A-Q2-276] | I-A-Q2-276: log P (HCOOH): 4.50
19 | Cc1cc(-n2nc(-c3ccccc3)c(-c3ccc(Cl)cc3)c2N)ccc1C(=O)NCC(F)(F)C(F)F [I-A-Q2-337] | I-A-Q2-337: log P (HCOOH): 3.80
20 | Cc1cc(-n2nc(C(F)(F)F)c(-c3cc(Cl)cc(Cl)c3)c2N)ccc1C(=O)NC(C)c1nccc2ccccc12 (stereo not drawn) [I-A-Q2-256] | I-A-Q2-256: log P (HCOOH): 4.64

Row | SMILES | log P (HCOOH)
21 | Cc1cc(-n2nc(C(C)C)c(-c3ccc(Cl)cc3)c2N)ccc1C(=O)NCC(F)(F)C(F)F [I-A-Q2-338] | I-A-Q2-338: log P (HCOOH): 3.65
22 | Cc1cc(-n2nc(C(F)(F)F)c(-c3cc(Cl)c4c(c3)OCO4)c2N)ccc1C(=O)NCC(F)(F)C(F)F [I-A-Q2-293] | I-A-Q2-293: log P (HCOOH): 3.11
23 | Nc1c(-c2cc(Cl)cc(Cl)c2)c(C(F)(F)F)nn1-c1ccc(C(=O)NC2CC2)cn1 [I-A-Q2-106] | I-A-Q2-106: log P (HCOOH): 4.30
24 | Cc1cc(CNC(=O)c2ccc(-n3nc(C(F)(F)F)c(-c4cc(Cl)cc(Cl)c4)c3N)cc2C)[nH]n1 [I-A-Q2-259] | I-A-Q2-259: log P (HCOOH): 3.33
25 | Cc1cc(-n2nc(C(F)(F)F)c(-c3cc(Cl)cc(Cl)c3)c2Cl)ccc1C(=O)NCc1ncccn1 [I-A-Q2-277] | I-A-Q2-277: log P (HCOOH): 4.56
26 | Cc1cc(-n2nc(C(F)(F)F)c(-c3ccccc3C)c2N)ccc1C(=O)NCC(F)(F)C(F)F [I-A-Q2-317] | I-A-Q2-317: log P (HCOOH): 3.32
27 | Cc1cc(-n2nc(C(F)(F)F)c(-c3cc(F)c(F)c(F)c3)c2N)ccc1C(=O)NCc1ccccn1 [I-A-Q2-358] | I-A-Q2-358: log P (HCOOH): 2.80
28 | Nc1c(-c2cc(F)cc(Cl)c2)c(C(F)(F)F)nn1-c1ccc(C(=O)NC2CC2)cc1 [I-A-Q2-092] | I-A-Q2-092: log P (HCOOH): 3.27
29 | Cc1cc(-n2nc(C(F)(F)F)c(-c3cc(Cl)cc(Cl)c3)c2N)ccc1C(=O)N(C)C(C)c1ccncc1 (stereo not drawn) [I-A-Q2-211] | I-A-Q2-211: log P (HCOOH): 2.89
30 | Cc1cc(-n2nc(C(F)(F)F)c(-c3cc(Cl)cc(Cl)c3)c2N)ccc1C(=O)NC(C)C [I-A-Q2-229] | I-A-Q2-229: log P (HCOOH): 4.05
31 | Cc1cc(-n2nc(C(F)(F)F)c(-c3cc(Cl)cc(Cl)c3)c2N)ccc1C(=O)NCc1ccc(C(F)(F)F)cn1 [I-A-Q2-233] | I-A-Q2-233: log P (HCOOH): 4.40
32 | CC(NC(=O)c1ccc(-n2nc(C(F)(F)F)c(-c3cccc(Cl)c3)c2N)cc1)C(F)(F)F (stereo not drawn) [I-A-Q2-083] | I-A-Q2-083: log P (HCOOH): 3.68
33 | Cc1cc(-n2nc(C(F)F)c(-c3ccc(F)cc3F)c2N)ccc1C(=O)NCc1ccccn1 [I-A-Q2-361] | I-A-Q2-361: log P (HCOOH): 1.91
34 | Nc1c(-c2cccc(Br)c2)c(C(F)(F)F)nn1-c1ccc(C(=O)NCc2ccccn2)cc1 [I-A-Q2-174] | I-A-Q2-174: log P (HCOOH): 2.50
35 | CC(NC(=O)c1ccc(-n2nc(C(F)(F)F)c(-c3cc(F)cc(Cl)c3)c2N)cc1)c1ccccn1 (stereo not drawn) [I-A-Q2-088] | I-A-Q2-088: log P (HCOOH): 2.99
36 | Cc1cc(-n2nc(C)c(-c3cc(F)ccc3F)c2N)ccc1C(=O)NCc1ccccn1 [I-A-Q2-372] | I-A-Q2-372: log P (HCOOH): 1.61
37 | CSCCNC(=O)c1ccc(-n2nc(C(F)(F)F)c(-c3cc(Cl)cc(Cl)c3)c2N)cc1C [I-A-Q2-205] | I-A-Q2-205: log P (HCOOH): 4.17
38 | Nc1c(-c2cc(Cl)cc(Cl)c2)c(C(F)(F)F)nn1-c1ccc(C(=O)NCC(F)(F)F)cc1 [I-A-Q2-138] | I-A-Q2-138: log P (HCOOH): 4.21
39 | Cc1cc(-n2nc(C(F)(F)F)c(-c3cc(Cl)cc(Cl)c3)c2N)ccc1C(=O)NC(C)c1ccc(F)cc1 (stereo not drawn) [I-A-Q2-247] | I-A-Q2-247: log P (HCOOH): 4.57
40 | Nc1c(-c2cc(Cl)cc(Cl)c2)c(C(F)(F)F)nn1-c1ccc(C(=O)NCc2cccnc2)cn1 [I-A-Q2-107] | I-A-Q2-107: log P (HCOOH): 2.95

same assay, conditions: HCOOH; Table 4, compounds of formula I-A-Q4

Row | SMILES | log P (HCOOH)
41 | FC(F)(F)c1nn(-c2ccc(I)cc2)c(Br)c1-c1cc(Cl)cc(Cl)c1 [I-A-Q4-017] | I-A-Q4-017: log P (HCOOH): 6.71
42 | FC(F)(F)c1nn(-c2ccc(I)cc2)c(I)c1-c1cc(Cl)cc(Cl)c1 [I-A-Q4-018] | I-A-Q4-018: log P (HCOOH): 6.50
43 | Cc1nn(-c2ccc(Cl)cn2)c(N)c1-c1ccc(Cl)cc1 [I-A-Q4-039] | I-A-Q4-039: log P (HCOOH): 4.40
44 | Nc1c(-c2ccc(Cl)cc2)c(C(F)(F)F)nn1-c1ccc(Cl)cn1 [I-A-Q4-041] | I-A-Q4-041: log P (HCOOH): 4.95
45 | Nc1c(-c2ccc(F)c(F)c2)c(C(F)(F)F)nn1-c1ccc(C(=O)O)cc1 [I-A-Q4-092] | I-A-Q4-092: log P (HCOOH): 3.06
46 | N#Cc1cc(-n2nc(C(F)(F)F)c(-c3cc(Cl)cc(Cl)c3)c2N)ccc1I [I-A-Q4-102] | I-A-Q4-102: log P (HCOOH): 5.94
47 | N#Cc1cc(-n2nc(C(F)(F)F)c(-c3cc(Cl)cc(Cl)c3)c2N)ccc1S(=O)(=O)NCC(F)(F)F [I-A-Q4-123] | I-A-Q4-123: log P (HCOOH): 4.41
48 | CN(C)C=Nc1c(-c2ccc(Cl)cc2)c(C(F)(F)F)nn1-c1ncc(Cl)cn1 [I-A-Q4-015] | I-A-Q4-015: log P (HCOOH): 3.47
49 | Nc1c(-c2ccc(Cl)cc2Cl)c(C(F)(F)F)nn1-c1ccc(Cl)cn1 [I-A-Q4-044] | I-A-Q4-044: log P (HCOOH): 5.02

same assay, conditions: HCOOH; Table 6, compounds of formula I-B-Q2

Row | SMILES | log P (HCOOH)
50 | O=C(NCC(F)(F)C(F)F)c1ccc(-n2cc(-c3cc(Cl)cc(Cl)c3)c(C(F)(F)F)n2)c2ccccc12 [I-B-Q2-021] | I-B-Q2-021: log P (HCOOH): 4.58

same assay, conditions: HPLC, reversed-phase C18, mobile phase with formic acid

Row | SMILES | log P (HCOOH)
51 | N#Cc1cc(-n2nc(C(F)(F)C(F)(F)F)c(-c3cc(C(F)(F)F)cc(C(F)(F)F)c3)c2N)ccc1-n1cncn1 [I-A-Q1-050] | I-A-Q1-050: log P (HCOOH): 4.34
52 | Cc1nc(C(F)(F)F)nn1-c1ccc(-n2nc(C(F)(F)F)c(-c3cc(Cl)cc(Cl)c3)c2N)cc1C#N [I-A-Q1-086] | I-A-Q1-086: log P (HCOOH): 4.57
53 | Nc1c(-c2cc(Cl)cc(Cl)c2)c(C(F)(F)F)nn1-c1ccc(-n2cncn2)c(Cl)c1 [I-A-Q1-069] | I-A-Q1-069: log P (HCOOH): 4.14
54 | Cc1nn(-c2ccc(-n3cncn3)c(C#N)c2)c(N)c1-c1ccc(Cl)c(Cl)c1 [I-A-Q1-025] | I-A-Q1-025: log P (HCOOH): 3.02
55 | Cc1nn(-c2ccc(-n3cncn3)c(C#N)c2)c(N)c1-c1cccc(Cl)c1 [I-A-Q1-053] | I-A-Q1-053: log P (HCOOH): 2.66
56 | COc1cnn(-c2ccc(-n3nc(C(F)(F)F)c(-c4cc(Cl)cc(Cl)c4)c3N)cc2C#N)c1 [I-A-Q1-085] | I-A-Q1-085: log P (HCOOH): 4.45
57 | Cc1nn(-c2ccc(-n3cncn3)c(C#N)c2)c(N)c1-c1c(F)cccc1F [I-A-Q1-054] | I-A-Q1-054: log P (HCOOH): 2.18
58 | N#Cc1cc(-n2nc(C(F)(F)F)c(-c3cc(Cl)cc(Cl)c3)c2N)ccc1-n1nc(C(F)(F)F)nc1N [I-A-Q1-093] | I-A-Q1-093: log P (HCOOH): 4.00
59 | Cc1nn(-c2ccc(-n3cncn3)c(C#N)c2)c(N)c1-c1ccc(F)cc1Cl [I-A-Q1-052] | I-A-Q1-052: log P (HCOOH): 2.43
60 | N#Cc1cc(-n2nc(C(F)(F)Oc3ccccc3)c(-c3cc(Cl)cc(C(F)(F)F)c3)c2N)ccc1-n1cncn1 [I-A-Q1-074] | I-A-Q1-074: log P (HCOOH): 4.33

Reference: US20110190365A1, “Insecticidal 4-phenyl-1H-pyrazoles” (Bayer Crop Science AG, priority 2008, published 2011)
